Laboratory results published in PubChem BioAssay (NCI).
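Each compound was tested at five concentrations against cells in 96-well plates for 48 hours. At the TGI there is no net growth.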

Tests used:
Test in all cases: DTP human tumour cell line panel, 48 h
SF-295 CNS = system: SF-295 CNS
SF-539 CNS = system: SF-539 CNS
RXF 393 renal = system: RXF 393 renal
M14 melanoma = system: M14 melanoma
HOP-18 NSCLC = system: HOP-18 NSCLC
NCI-H460 lung = system: NCI-H460 lung
UACC-62 melanoma = system: UACC-62 melanoma
HL-60(TB) leukemia = system: HL-60(TB) leukemia
SR leukemia = system: SR leukemia
SNB-19 CNS = system: SNB-19 CNS
SW-620 colon = system: SW-620 colon
SN12C renal = system: SN12C renal
PC-3 prostate = system: PC-3 prostate
HCT-116 colon = system: HCT-116 colon
TK-10 renal = system: TK-10 renal
HCC-2998 colon = system: HCC-2998 colon
SK-OV-3 ovarian = system: SK-OV-3 ovarian
SK-MEL-2 melanoma = system: SK-MEL-2 melanoma
MDA-MB-231 breast = system: MDA-MB-231 breast
HT29 colon = system: HT29 colon
MOLT-4 leukemia = system: MOLT-4 leukemia
LXFL 529 NSCLC = system: LXFL 529 NSCLC
MCF7 breast = system: MCF7 breast
U251 CNS = system: U251 CNS
DLD-1 colon = system: DLD-1 colon
NCI-H23 lung = system: NCI-H23 lung
RXF-631 renal = system: RXF-631 renal
786-0 renal = system: 786-0 renal
OVCAR-5 ovarian = system: OVCAR-5 ovarian
A549 NSCLC = system: A549 NSCLC
UACC-257 melanoma = system: UACC-257 melanoma
NCI/ADR-RES ovarian = system: NCI/ADR-RES ovarian
A498 renal = system: A498 renal
RPMI-8226 leukemia = system: RPMI-8226 leukemia
K-562 leukemia = system: K-562 leukemia
XF 498 CNS = system: XF 498 CNS
HS 578T breast = system: HS 578T breast
ACHN renal = system: ACHN renal
OVCAR-3 ovarian = system: OVCAR-3 ovarian
MALME-3M melanoma = system: MALME-3M melanoma
OVCAR-8 ovarian = system: OVCAR-8 ovarian
MDA-MB-435 = system: MDA-MB-435
SK-MEL-5 melanoma = system: SK-MEL-5 melanoma
SNB-78 CNS = system: SNB-78 CNS
T-47D breast = system: T-47D breast
OVCAR-4 ovarian = system: OVCAR-4 ovarian
DU-145 prostate = system: DU-145 prostate
SK-MEL-28 melanoma = system: SK-MEL-28 melanoma
DMS 273 small cell lung = system: DMS 273 small cell lung
HOP-62 NSCLC = system: HOP-62 NSCLC
COLO 205 colon = system: COLO 205 colon
NCI-H522 lung = system: NCI-H522 lung
NCI-H226 lung = system: NCI-H226 lung
M19-MEL melanoma = system: M19-MEL melanoma
KM12 colon = system: KM12 colon
CCRF-CEM leukemia = system: CCRF-CEM leukemia
UO-31 renal = system: UO-31 renal
KM20L2 colon = system: KM20L2 colon
HCT-15 colon = system: HCT-15 colon
SNB-75 CNS = system: SNB-75 CNS
CAKI-1 renal = system: CAKI-1 renal
MDA-N = system: MDA-N
DMS 114 small cell lung = system: DMS 114 small cell lung
IGROV1 ovarian = system: IGROV1 ovarian
SF-268 CNS = system: SF-268 CNS
EKVX NSCLC = system: EKVX NSCLC
HOP-92 NSCLC = system: HOP-92 NSCLC
LOX IMVI melanoma = system: LOX IMVI melanoma
BT-549 breast = system: BT-549 breast

`CNC(=O)/C(=C/c1ccc(OC)cc1)c1cc(OC)c(OC)c(OC)c1` was tested, and the TGI (SF-295 CNS) was 3.02 µM, the TGI (SF-539 CNS) was 3.58 µM and the TGI (RXF 393 renal) was 11.8 µM. For the same compound, the TGI (M14 melanoma) was greater than 34.6 µM, the TGI (HOP-18 NSCLC) was greater than 100 µM and the TGI (NCI-H460 lung) was 47.5 µM. The TGI (UACC-62 melanoma) was greater than 48.6 µM, the TGI (HL-60(TB) leukemia) was 8.01 µM and the TGI (SR leukemia) was greater than 31.1 µM. For the same compound, the TGI (SNB-19 CNS) was 54.8 µM, the TGI (SW-620 colon) was greater than 100 µM and the TGI (SN12C renal) was 98.1 µM. For the same compound, the TGI (PC-3 prostate) was greater than 100 µM, the TGI (HCT-116 colon) was greater than 72.4 µM and the TGI (TK-10 renal) was greater than 100 µM. The TGI (HCC-2998 colon) was 17.7 µM, the TGI (SK-OV-3 ovarian) was 29 µM and the TGI (SK-MEL-2 melanoma) was greater than 100 µM. For the same compound, the TGI (MDA-MB-231 breast) was greater than 77.9 µM, the TGI (HT29 colon) was 17.5 µM and the TGI (MOLT-4 leukemia) was greater than 100 µM. The TGI (LXFL 529 NSCLC) was greater than 100 µM, the TGI (MCF7 breast) was greater than 51.4 µM and the TGI (U251 CNS) was 23.1 µM. For the same compound, the TGI (DLD-1 colon) was greater than 100 µM, the TGI (NCI-H23 lung) was 32.6 µM and the TGI (RXF-631 renal) was greater than 100 µM. For the same compound, the TGI (786-0 renal) was greater than 100 µM, the TGI (OVCAR-5 ovarian) was greater than 93.3 µM and the TGI (A549 NSCLC) was greater than 100 µM. The TGI (UACC-257 melanoma) was greater than 90 µM, the TGI (NCI/ADR-RES ovarian) was greater than 100 µM and the TGI (A498 renal) was greater than 43.4 µM. For the same compound, the TGI (RPMI-8226 leukemia) was greater than 100 µM, the TGI (K-562 leukemia) was greater than 80.9 µM and the TGI (XF 498 CNS) was 65.8 µM. The TGI (HS 578T breast) was 5.71 µM, the TGI (ACHN renal) was greater than 100 µM and the TGI (OVCAR-3 ovarian) was 2500 nM. It also gave a TGI (MALME-3M melanoma) greater than 54.5 µM, a TGI (OVCAR-8 ovarian) of 55.3 µM and a TGI (MDA-MB-435) of 2420 nM. It also gave a TGI (SK-MEL-5 melanoma) greater than 36.6 µM, a TGI (SNB-78 CNS) greater than 100 µM and a TGI (T-47D breast) greater than 100 µM. For the same compound, the TGI (OVCAR-4 ovarian) was 99.7 µM, the TGI (DU-145 prostate) was greater than 43 µM and the TGI (SK-MEL-28 melanoma) was greater than 100 µM. The TGI (DMS 273 small cell lung) was greater than 100 µM, the TGI (HOP-62 NSCLC) was greater than 100 µM and the TGI (COLO 205 colon) was 7.36 µM. The TGI (NCI-H522 lung) was 4.39 µM, the TGI (NCI-H226 lung) was greater than 53.7 µM and the TGI (M19-MEL melanoma) was greater than 100 µM. The TGI (KM12 colon) was greater than 83.9 µM, the TGI (CCRF-CEM leukemia) was greater than 100 µM and the TGI (UO-31 renal) was greater than 86 µM. It also gave a TGI (KM20L2 colon) of 2720 nM, a TGI (HCT-15 colon) greater than 100 µM and a TGI (SNB-75 CNS) of 4.4 µM. The TGI (CAKI-1 renal) was greater than 100 µM, the TGI (MDA-N) was 710 nM and the TGI (DMS 114 small cell lung) was greater than 21.5 µM. It also gave a TGI (IGROV1 ovarian) greater than 100 µM, a TGI (SF-268 CNS) greater than 84.7 µM and a TGI (EKVX NSCLC) greater than 100 µM. The TGI (HOP-92 NSCLC) was greater than 60.2 µM, the TGI (LOX IMVI melanoma) was greater than 100 µM and the TGI (BT-549 breast) was greater than 100 µM.

Compound `CC(C)(C)c1cc(-c2c3nc(c(-c4cc(C(C)(C)C)cc(C(C)(C)C)c4)c4ccc([nH]4)c(-c4cc(C(C)(C)C)cc(C(C)(C)C)c4)c4nc(c(-c5cc(C(C)(C)C)cc(C(C)(C)C)c5)c5ccc2[nH]5)C=C4)C=C3)cc(C(C)(C)C)c1` has a TGI (SF-295 CNS) greater than 100 µM, a TGI (SF-539 CNS) greater than 100 µM and a TGI (RXF 393 renal) greater than 100 µM. It also gave a TGI (M14 melanoma) greater than 100 µM, a TGI (HOP-18 NSCLC) greater than 100 µM and a TGI (NCI-H460 lung) greater than 100 µM. The TGI (UACC-62 melanoma) was greater than 100 µM, the TGI (HL-60(TB) leukemia) was greater than 100 µM and the TGI (SR leukemia) was greater than 100 µM. For the same compound, the TGI (SNB-19 CNS) was greater than 100 µM, the TGI (SW-620 colon) was greater than 100 µM and the TGI (SN12C renal) was greater than 100 µM. It also gave a TGI (HCT-116 colon) greater than 100 µM, a TGI (TK-10 renal) greater than 100 µM and a TGI (HCC-2998 colon) greater than 100 µM. The TGI (SK-OV-3 ovarian) was greater than 100 µM, the TGI (SK-MEL-2 melanoma) was greater than 100 µM and the TGI (HT29 colon) was greater than 100 µM. The TGI (MOLT-4 leukemia) was greater than 100 µM, the TGI (LXFL 529 NSCLC) was greater than 100 µM and the TGI (U251 CNS) was greater than 100 µM. The TGI (DLD-1 colon) was greater than 100 µM, the TGI (NCI-H23 lung) was greater than 100 µM and the TGI (RXF-631 renal) was greater than 100 µM. The TGI (786-0 renal) was greater than 100 µM, the TGI (OVCAR-5 ovarian) was greater than 100 µM and the TGI (A549 NSCLC) was greater than 100 µM. The TGI (UACC-257 melanoma) was greater than 100 µM, the TGI (A498 renal) was greater than 100 µM and the TGI (RPMI-8226 leukemia) was greater than 100 µM. The TGI (K-562 leukemia) was greater than 100 µM, the TGI (XF 498 CNS) was greater than 100 µM and the TGI (ACHN renal) was greater than 100 µM. It also gave a TGI (OVCAR-3 ovarian) greater than 100000 nM, a TGI (MALME-3M melanoma) greater than 100 µM and a TGI (OVCAR-8 ovarian) greater than 100 µM. It also gave a TGI (SK-MEL-5 melanoma) greater than 100 µM, a TGI (SNB-78 CNS) greater than 100 µM and a TGI (OVCAR-4 ovarian) greater than 100 µM. The TGI (SK-MEL-28 melanoma) was greater than 100 µM, the TGI (DMS 273 small cell lung) was greater than 100 µM and the TGI (HOP-62 NSCLC) was greater than 100 µM. It also gave a TGI (COLO 205 colon) greater than 100 µM, a TGI (NCI-H522 lung) greater than 100 µM and a TGI (NCI-H226 lung) greater than 100 µM. For the same compound, the TGI (KM12 colon) was greater than 100 µM, the TGI (CCRF-CEM leukemia) was greater than 100 µM and the TGI (UO-31 renal) was greater than 100 µM. It also gave a TGI (KM20L2 colon) greater than 100000 nM, a TGI (HCT-15 colon) greater than 100 µM and a TGI (SNB-75 CNS) greater than 100 µM. The TGI (CAKI-1 renal) was greater than 100 µM, the TGI (DMS 114 small cell lung) was greater than 100 µM and the TGI (IGROV1 ovarian) was greater than 100 µM. It also gave a TGI (SF-268 CNS) greater than 100 µM, a TGI (EKVX NSCLC) greater than 100 µM and a TGI (HOP-92 NSCLC) greater than 100 µM. For the same compound, the TGI (LOX IMVI melanoma) was greater than 100 µM.
